Test results reported in PubChem BioAssay AID1996.
Values after ≈ are worked out from the molar mass of the structure shown.

Conditions: buffer; pH 7.4; 200.0 µM

Row | Structure (SMILES) | solubility kinetic
1 | CSC(=Nc1ccccc1)Nc1ccccc1 | 6.4 µg/mL (≈ 26.4 µM)
2 | COc1ccc(CN2CCSCC2)c(OC)c1C | 26.4 µg/mL (≈ 98.7 µM)
3 | CCOC(=O)C1=C(C)NC(C)=C(C(=O)OCC)C1c1cccc(C)n1 | 5.1 µg/mL (≈ 14.8 µM)
4 | NC(=O)c1ccc(NCCc2ccccc2)c([N+](=O)[O-])c1 | 5 µg/mL (≈ 17.5 µM)
5 | CP(=O)(O)CN1CCCCC1 | 24.9 µg/mL (≈ 141 µM)
6 | OC(CNCc1ccccc1Cl)COc1ccc(F)cc1 (stereo not drawn) | > 46.5 µg/mL
7 | COc1cccc2sc(/N=C/N(C)C)nc12 | 33.6 µg/mL (≈ 143 µM)
8 | CCCCn1c(N)c(N(CC)C(=O)c2ccco2)c(=O)[nH]c1=O | > 48.1 µg/mL
9 | O=C(NNC(=O)c1ccccn1)c1ccc(OC(F)F)cc1 | > 46.1 µg/mL
10 | O=C(/C=C/c1ccccc1)N(Cc1cccs1)C1CCS(=O)(=O)C1 (stereo not drawn) | > 54.2 µg/mL
11 | COc1ccc(CNC(=O)c2cncc(Br)c2)cc1 | 45.8 µg/mL (≈ 143 µM)
12 | CCCNC(=O)c1nn2cc(Br)cnc2c1Cl | > 47.6 µg/mL
13 | N#C/C(=C\c1ccc(F)cc1)C(=O)Nc1ccccn1 | 19 µg/mL (≈ 71.1 µM)
14 | CCNS(=O)(=O)c1ccc(CCC(=O)N2CCOCC2)cc1 | > 49 µg/mL
15 | C=CCn1c(=S)sc2c(=O)[nH]cnc21 | > 33.8 µg/mL
16 | Br.CCCCCCCCn1ccc(=N)cc1 | > 43.1 µg/mL
17 | O=C(CCn1ccnc1)Nc1cc(Cl)ccc1O | > 39.9 µg/mL
18 | O=C(NC1CC1)c1cccc(NC(=O)c2cn3ccccc3n2)c1 | > 48.1 µg/mL
19 | Cc1ccc(CS(=O)(=O)CCC(=O)NCCc2ccccc2)cc1 | 5.2 µg/mL (≈ 15.1 µM)
20 | Cl.OC(CN1CCOCC1)c1csc2ccccc12 (stereo not drawn) | 43.6 µg/mL
21 | Cc1cc2cc(CNC(=O)C(C)Oc3ccccc3)ccc2n1C (stereo not drawn) | 11.4 µg/mL (≈ 35.4 µM)
22 | CCC(C)NC(=O)c1ccc(-n2c(=S)[nH]c3ccccc3c2=O)cc1 (stereo not drawn) | 3.7 µg/mL (≈ 10.5 µM)

More lines, now with the values ahead:

Row | solubility kinetic | Structure (SMILES)
23 | 11.7 µg/mL (≈ 33.9 µM) | COc1ccc(-c2csc(NC(=O)CN3C(=O)CCC3=O)n2)cc1
24 | > 43.3 µg/mL | CCN1CCN(C(=O)/C=C/c2ccc3c(c2)OCO3)CC1
25 | 2.8 µg/mL (≈ 8.11 µM) | CCc1cc2c(=O)n(-c3ccccc3)c(SCC(N)=O)nc2s1
26 | > 39.5 µg/mL | CCC(=O)c1ccc(OC(=O)N2CCOCC2)cc1
27 | 16.5 µg/mL (≈ 53.2 µM) | N#CC1=C(N)OC2=C(C(=O)CCC2)C1c1ccc2c(c1)OCO2 (stereo not drawn)
28 | > 52.7 µg/mL | CN(Cc1ccccc1)C(=O)COC(=O)c1cc2ccccc2oc1=O
29 | 10.5 µg/mL (≈ 31.2 µM) | CC1(C)CC(=O)C2=C(C1)Nc1ccccc1NC2c1ccccc1F (stereo not drawn)
30 | 15.8 µg/mL (≈ 50.4 µM) | O=C(COc1ccc2c3c(c(=O)oc2c1)CCC3)N1CCCC1
31 | 4.9 µg/mL (≈ 14.7 µM) | O=C(COC(=O)/C=C/c1cccc(F)c1)NC(=O)NC1CCCC1
32 | 11.5 µg/mL (≈ 41.6 µM) | COc1cccc(C2Nc3cccc4cccc(c34)N2)c1
33 | 4.8 µg/mL (≈ 16 µM) | CCOc1ccc(/C=C(\C#N)C(=O)NC2CC2)c(OCC)c1
34 | 7.8 µg/mL | Cc1ccccc1C(=O)Nc1ccc(N2CCCC2)cc1.Cl
35 | > 39.1 µg/mL | Cc1ccc(C)c(NC(=O)CCN2CCCCC2)c1
36 | > 42.9 µg/mL | Cc1nc2ccc(NC(=O)N3CCOCC3)cc2nc1C
37 | 9.4 µg/mL (≈ 25.2 µM) | O=C(Cc1ccc(F)cc1)N1CCN=C1SCc1cccc([N+](=O)[O-])c1
38 | 42.4 µg/mL (≈ 136 µM) | COc1ccc(OCC(=O)NC2CCCc3ccccc32)cc1 (stereo not drawn)
